From patent publication US20020065219A1, “Water soluble thiazolyl peptide derivatives” (priority 2000, published 2002)
In brackets after ≈: the same amount, converted by molar mass. Where two headings read alike, the source gives them in different places.

Legend:
Experiment in all cases: MIC, broth micro dilution assay (NCCLS)
Format in all cases: cell-based
[1] = test system: Enterococcus faecalis A20688; details: for MIC: Enterococcus faecalis, A20688, 18 h, read-out: MIC (μg/mL) against Enterococcus faecalis A20688
[2] = test system: Streptococcus pneumoniae A28272; details: for MIC: Streptococcus pneumoniae, A28272, 18 h, read-out: MIC (μg/mL) against Streptococcus pneumoniae A28272
[3] = test system: Staphylococcus aureus A15090; details: for MIC: Staphylococcus aureus, A15090, 18 h, read-out: MIC (μg/mL) against Staphylococcus aureus A15090
[4] = Mueller-Hinton medium, 35° C., 18 hours

Compound	MIC (μg/mL) against Enterococcus faecalis A20688 [1] [µg/mL]	MIC (μg/mL) against Streptococcus pneumoniae A28272 [2] [µg/mL]	MIC (μg/mL) against Staphylococcus aureus A15090 [3] [µg/mL]	also measured
CO/C(C)=C1/NC(=O)C(C(C)O)NC(=O)c2csc(n2)-c2cc(O)c(-c3nc(C(=O)NC(CN4CCN(c5ccncc5)CC4)C(N)=O)cs3)nc2-c2csc(n2)C2COC(=O)c3c4c5c(cccc5n3O)COC(=O)C(O[C@H]3C[C@](C)(O)[C@H](N(C)C)[C@H](C)O3)C(OC4)C(NC(=O)c3csc1n3)c1nc(cs1)C(=O)N2 (stereo partly drawn) [Example 52]	1.0 (≈ 0.625 µM)	0.5 (≈ 0.312 µM)	0.5 (≈ 0.312 µM)	–
CO/C(C)=C1/NC(=O)C(C(C)O)NC(=O)c2csc(n2)-c2cc(O)c(-c3nc(C(=O)NC(CSCCN(C)C)C(N)=O)cs3)nc2-c2csc(n2)C2COC(=O)c3c4c5c(cccc5n3O)COC(=O)C(O[C@H]3C[C@](C)(O)[C@H](N(C)C)[C@H](C)O3)C(OC4)C(NC(=O)c3csc1n3)c1nc(cs1)C(=O)N2 (stereo partly drawn) [Example 10]	–	–	–	MIC [1]: 0.25 µg/mL (≈ 0.162 µM); MIC [2]: 0.015 µg/mL (≈ 0.00972 µM); MIC [3]: 0.125 µg/mL (≈ 0.081 µM)
COC(C)=C1NC(=O)C(C(C)O)NC(=O)c2csc(n2)-c2cc(O)c(-c3nc(C(=O)NC(CN4CCN(Cc5cc(OC)c(OC)c(OC)c5)CC4)C(N)=O)cs3)nc2-c2csc(n2)C2COC(=O)c3c4c5c(cccc5n3O)COC(=O)C(OC3CC(C)(O)C(N(C)C)C(C)O3)C(OC4)C(NC(=O)c3csc1n3)c1nc(cs1)C(=O)N2 (stereo not drawn) [Example 71]	2.0 (≈ 1.17 µM)	0.5 (≈ 0.293 µM)	1.0 (≈ 0.587 µM)	–
CO/C(C)=C1/NC(=O)C(C(C)O)NC(=O)c2csc(n2)-c2cc(O)c(-c3nc(C(=O)NC(CN4CCN(C(C)=O)CC4)C(N)=O)cs3)nc2-c2csc(n2)C2COC(=O)c3c4c5c(cccc5n3O)COC(=O)C(O[C@H]3C[C@](C)(O)[C@H](N(C)C)[C@H](C)O3)C(OC4)C(NC(=O)c3csc1n3)c1nc(cs1)C(=O)N2 (stereo partly drawn) [Example 21]	–	–	–	MIC (μg/mL) against Enterococcus faecalis A20688 [1, 4]: 2.0 µg/mL (≈ 1.28 µM); MIC (μg/mL) against Streptococcus pneumoniae A28272 ([2]; 50% Mueller-Hinton medium and 50% Todd Hewitt medium, 35° C., 18 hours): 0.03 µg/mL (≈ 0.0192 µM); MIC (μg/mL) against Staphylococcus aureus A15090 [3, 4]: 0.5 µg/mL (≈ 0.319 µM)
CO/C(C)=C1/NC(=O)C(C(C)O)NC(=O)c2csc(n2)-c2cc(O)c(-c3nc(C(=O)NC(CNCCOCCOCCO)C(N)=O)cs3)nc2-c2csc(n2)C2COC(=O)c3c4c5c(cccc5n3O)COC(=O)C(O[C@H]3C[C@](C)(O)[C@H](N(C)C)[C@H](C)O3)C(OC4)C(NC(=O)c3csc1n3)c1nc(cs1)C(=O)N2 (stereo partly drawn) [Example 55]	0.5 (≈ 0.315 µM)	0.06 (≈ 0.0378 µM)	0.25 (≈ 0.158 µM)	–
CO/C(C)=C1/NC(=O)C(C(C)O)NC(=O)c2csc(n2)-c2cc(O)c(-c3nc(C(=O)NC(CNCc4cc(OC)c(OC)c(OC)c4)C(N)=O)cs3)nc2-c2csc(n2)C2COC(=O)c3c4c5c(cccc5n3O)COC(=O)C(O[C@H]3C[C@](C)(O)[C@H](N(C)C)[C@H](C)O3)C(OC4)C(NC(=O)c3csc1n3)c1nc(cs1)C(=O)N2 (stereo partly drawn) [Example 70]	4.0 (≈ 2.45 µM)	0.06 (≈ 0.0367 µM)	0.25 (≈ 0.153 µM)	–
CCN(CC)CCS(=O)(=O)CC(NC(=O)c1csc(-c2nc3c(cc2O)-c2nc(cs2)C(=O)NC(C(C)O)C(=O)N/C(=C(\C)OC)c2nc(cs2)C(=O)NC2c4nc(cs4)C(=O)NC(COC(=O)c4c5c6c(cccc6n4O)COC(=O)C(O[C@H]4C[C@](C)(O)C(N(C)C)[C@H](C)O4)C2OC5)c2nc-3cs2)n1)C(N)=O (stereo partly drawn) [Example 103]	–	–	–	MIC [1]: 0.03 µg/mL (≈ 0.0187 µM); MIC [2]: 0.007 µg/mL (≈ 0.00437 µM); MIC [3]: 0.06 µg/mL (≈ 0.0374 µM)
CO/C(C)=C1/NC(=O)C(C(C)O)NC(=O)c2csc(n2)-c2cc(O)c(-c3nc(C(=O)NC(CNCc4nn[nH]n4)C(N)=O)cs3)nc2-c2csc(n2)C2COC(=O)c3c4c5c(cccc5n3O)COC(=O)C(O[C@H]3C[C@](C)(O)[C@H](N(C)C)[C@H](C)O3)C(OC4)C(NC(=O)c3csc1n3)c1nc(cs1)C(=O)N2 (stereo partly drawn) [Example 50]	1.0 (≈ 0.651 µM)	0.25 (≈ 0.163 µM)	0.25 (≈ 0.163 µM)	–
